# Test system: Min6 cell
# Assay: Insulin secretion response of beta cell line to formula I compounds (insulin ELISA)
# Type: cell-based
# Details: rank according to % increase versus control at most effective dose
# Outline: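 After compound or vehicle exposure, Min6 cells were held 2 h in glucose-free medium and preincubated 30 min at 37° C in glucose-free KRBH (pH 7.4, 0.1% BSA). They were then incubated 30 min at 37° C in KRBH with varying glucose. Secreted insulin and acid-ethanol-extracted intracellular insulin were measured by ELISA.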
row,Compound,Insulin secretion (Min6 cell) Range 1 to 5
1,"O=C(CN1CCC(=O)N(C2CC2)Cc2cc(Cl)ccc21)c1ccc(OC(F)F)cc1 [Compound 143, 8-chloro-5-cyclopropyl-1-(2-(4-(difluoromethoxy)phenyl)-2-oxoethyl)-2,3,5,6-tetrahydrobenzo[b][1,5]diazocin-4(1H)-one]",2 (2: 110-120% of control)
2,"O=C(CN1CCC(=O)N(C2CC2)Cc2c1ccc1c2OCCO1)c1ccc(OC(F)F)cc1 [Compound 144, 11-cyclopropyl-7-(2-(4-(difluoromethoxy)phenyl)-2-oxoethyl)-2,3,8,9,11,12-hexahydro-[1,4]dioxino[2′,3′:3,4]benzo[1,2-b][1,5]diazocin-10(7H)-one]",1 (1: 90-110% of control)
3,"OC(CN1CCCN(C2CC2)Cc2cc(F)ccc21)c1ccc(Cl)cc1 (stereo not drawn) [Compound 145, 1-(4-chlorophenyl)-2-(5-cyclopropyl-8-fluoro-3,4,5,6-tetrahydrobenzo[b][1,5]diazocin-1(2H)-yl)ethanol]",3 (3: 120-140% of control)
4,"C[C@H](O)CN1CCC(=O)N(C2CC2)Cc2c1ccc1c2OCCO1 [Compound 146, (S)-11-cyclopropyl-7-(2-hydroxypropyl)-2,3,8,9,11,12-hexahydro-[1,4]dioxino[2′,3′:3,4]benzo[1,2-b][1,5]diazocin-10(7H)-one]",5 (5: >170% of control)
5,"C[C@H](O)CN1CCC(=O)N(C2CC2)Cc2cc(Cl)ccc21 [Compound 147, (S)-8-chloro-5-cyclopropyl-1-(2-hydroxypropyl)-2,3,5,6-tetrahydrobenzo[b][1,5]diazocin-4(1H)-one]",2 (2: 110-120% of control)
6,"O=C1CCN(CC(O)c2ccc(OC(F)F)cc2)c2ccc(Cl)cc2CN1C1CC1 (stereo not drawn) [Compound 148, 8-chloro-5-cyclopropyl-1-(2-(4-(difluoromethoxy)phenyl)-2-hydroxyethyl)-2,3,5,6-tetrahydrobenzo[b][1,5]diazocin-4(1H)-one]",1 (1: 90-110% of control)
7,"O=C1CCN(CC(O)c2ccc(OC(F)F)cc2)c2ccc3c(c2CN1C1CC1)OCCO3 (stereo not drawn) [Compound 149, 11-cyclopropyl-7-(2-(4-(difluoromethoxy)phenyl)-2-hydroxyethyl)-2,3,8,9,11,12-hexahydro-[1,4]dioxino[2′,3′:3,4]benzo[1,2-b][1,5]diazocin-10(7H)-one]",3 (3: 120-140% of control)
8,"O=C1CCN(C(=O)Cc2ccc(F)cc2)c2ncccc2CN1CC1CC1 [Compound 150, 5-(cyclopropylmethyl)-1-(2-(4-fluorophenyl)acetyl)-2,3,5,6-tetrahydropyrido[2,3-b][1,5]diazocin-4(1H)-one]",4 (4: 140-170% of control)
9,"Cc1cc(C(=O)N2CCC(=O)N(CC3CC3)Cc3cccnc32)on1 [Compound 151, 5-(cyclopropylmethyl)-1-(3-methylisoxazole-5-carbonyl)-2,3,5,6-tetrahydropyrido[2,3-b][1,5]diazocin-4(1H)-one]",1 (1: 90-110% of control)
10,"O=C1CCN(C(=O)c2cnccn2)c2ncccc2CN1CC1CC1 [Compound 152, 5-(cyclopropylmethyl)-1-(pyrazine-2-carbonyl)-2,3,5,6-tetrahydropyrido[2,3-b][1,5]diazocin-4(1H)-one]",3 (3: 120-140% of control)
11,"O=C1CCN(C(=O)c2cccnc2)c2ncccc2CN1CC1CC1 [Compound 153, 5-(cyclopropylmethyl)-1-nicotinoyl-2,3,5,6-tetrahydropyrido[2,3-b][1,5]diazocin-4(1H)-one]",3 (3: 120-140% of control)
12,"CC(C)(C)C(O)CN1CCC(=O)N(C2CCCC2)Cc2cc(F)ccc21 (stereo not drawn) [Compound 154, 5-cyclopentyl-8-fluoro-1-(2-hydroxy-3,3-dimethylbutyl)-2,3,5,6-tetrahydrobenzo[b][1,5]diazocin-4(1H)-one]",1 (1: 90-110% of control)
13,"COc1ccc2c(c1)CN(CC=C(C)C)C(=O)CCN2C(=O)c1ccno1 [Compound 156, 1-(isoxazole-5-carbonyl)-8-methoxy-5-(3-methylbut-2-enyl)-2,3,5,6-tetrahydrobenzo[b][1,5]diazocin-4(1H)-one]",1 (1: 90-110% of control)
14,"CCC#CCN1Cc2ccccc2N(C(=O)c2ccno2)CCC1=O [Compound 158, 1-(isoxazole-5-carbonyl)-5-(pent-2-ynyl)-2,3,5,6-tetrahydrobenzo[b][1,5]diazocin-4(1H)-one]",1 (1: 90-110% of control)
15,"O=C1CCN(C(=O)c2ccno2)c2cc3c(cc2CN1CC1CC1)OCO3 [Compound 159, 9-(cyclopropylmethyl)-5-(isoxazol-5-ylcarbonyl)-6,7,9,10-tetrahydro[1,3]dioxolo[4,5-i][1,5]benzodiazocin-8(5H)-one]",1 (1: 90-110% of control)
16,"COc1ccc2c(c1)CN(C1CC1)C(=O)CCN2C(=O)C1CCC1 [Compound 160, 1-(cyclobutanecarbonyl)-5-cyclopropyl-8-methoxy-2,3,5,6-tetrahydrobenzo[b][1,5]diazocin-4(1H)-one]",1 (1: 90-110% of control)
17,"O=C1CCNc2cc3c(cc2CN1C1CCCC1)OCO3 [Compound 161, 9-cyclopentyl-6,7,9,10-tetrahydro[1,3]dioxolo[4,5-i][1,5]benzodiazocin-8(5H)-one]",1 (1: 90-110% of control)
18,"CC(C)(C)OCC(O)CN1CCC(=O)N(C2CC2)Cc2cc3c(cc21)OCO3 (stereo not drawn) [Compound 162, 5-(3-tert-butoxy-2-hydroxypropyl)-9-cyclopropyl-6,7,9,10-tetrahydro[1,3]dioxolo[4,5-i][1,5]benzodiazocin-8(5H)-one]",1 (1: 90-110% of control)
19,"CCN1Cc2ccccc2N(CC(C)O)CCC1=O (stereo not drawn) [Compound 163, 5-ethyl-1-(2-hydroxypropyl)-2,3,5,6-tetrahydrobenzo[b][1,5]diazocin-4(1H)-one]",1 (1: 90-110% of control)
20,"CCN1Cc2cc(F)ccc2N(CC(O)C(C)(C)C)CCC1=O (stereo not drawn) [Compound 166, 5-ethyl-8-fluoro-1-(2-hydroxy-3,3-dimethylbutyl)-2,3,5,6-tetrahydrobenzo[b][1,5]diazocin-4(1H)-one]",1 (1: 90-110% of control)
21,"C=CCOc1c(OC)ccc2c1CN(CC)C(=O)CCN2CC(O)COc1ccccc1 (stereo not drawn) [Compound 167, 7-(allyloxy)-5-ethyl-1-(2-hydroxy-3-phenoxypropyl)-8-methoxy-2,3,5,6-tetrahydrobenzo[b][1,5]diazocin-4(1H)-one]",2 (2: 110-120% of control)
22,"O=C1CCN(C[C@@H](O)COCc2ccccc2)c2ccc(F)cc2CN1C1CCCC1 [Compound 168, (R)-1-(3-(benzyloxy)-2-hydroxypropyl)-5-cyclopentyl-8-fluoro-2,3,5,6-tetrahydrobenzo[b][1,5]diazocin-4(1H)-one]",4 (4: 140-170% of control)
23,"C=CCOc1c(OC)ccc2c1CN(CC1CC1)C(=O)CCN2C(=O)c1ccno1 [Compound 169, 7-(allyloxy)-5-(cyclopropylmethyl)-1-(isoxazole-5-carbonyl)-8-methoxy-2,3,5,6-tetrahydrobenzo[b][1,5]diazocin-4(1H)-one]",4 (4: 140-170% of control)
24,"ethyl 2-(4-oxo-1,2,3,4-tetrahydrobenzo[b][1,5]diazocin-5(6H)-yl)acetate [Compound 155]",1 (1: 90-110% of control)
